# Assay results published in patent US12384768B2, “Isoxazole carboxylic acids as LPA antagonists” (BRISTOL-MYERS SQUIBB COMPANY, priority 2019, dated 2025).
# Test system: IPF patients
# Assay: not given
# Details: 26-week clinical trial, IPF patients (Palmer et al.); cited from earlier work
row,Structure (SMILES),rate of FVC (forced vital capacity) decline
1,Cc1noc(-c2ccc(-c3ccc(C4(C(=O)O)CC4)cc3)cc2)c1NC(=O)O[C@H](C)c1ccccc1 [BMS-986020],significantly reduce

# Test system: nerve-injured mice
# Assay: not given
# Details: pretreatment, nerve-injured mice (Inoue et al.); cited from earlier work
row,Structure (SMILES),allodynia and hyperalgesia
1,C[C@@H](N)[C@H]1CC[C@H](C(=O)Nc2ccncc2)CC1 [Example Y-27632],completely abolished

# Test system: pancreatic cancer cell lines
# Assay: not given
# Details: highly peritoneal metastatic pancreatic cancer cell line; cited from earlier work
row,Structure (SMILES),LPA-induced and ascites-induced invasion activity
1,Cc1noc(-c2ccc(CSCCC(=O)O)cc2)c1NC(=O)OC(C)c1ccccc1Cl (stereo not drawn) [Ki16425],blocked

# Same assay, conditions: pancreatic cancer cell lines (Yamada et al.); cited from earlier work
row,Structure (SMILES),in vitro migration in response to LPA and peritoneal fluid (ascites)
1,Cc1noc(-c2ccc(CSCCC(=O)O)cc2)c1NC(=O)OC(C)c1ccccc1Cl (stereo not drawn) [Ki16425],effectively blocked

# Target: T1, human LPA1 (Homo sapiens, UniProt Q92633)
# T1 construct: expressed in transfected cells; host or cells: Chinese hamster ovary (CHO) cells
# Assay: LPA1 functional antagonist assay (calcium flux)
# Type: cell-based
# Details: CHO cells overexpressing human LPA1; inhibition of calcium flux induced by 10 nM LPA; read-out: hLPA1 IC50
# Experimental: The effectiveness of compounds of the present invention as LPA1 inhibitors can be determined in an LPA1 functional antagonist assay as follows:
# Chinese hamster ovary cells overexpressing human LPA1 were plated overnight (15,000 cells/well) in poly-D-lysine coated 384-well microplates (Greiner bio-one, Cat #781946) in DMEM/F12 medium (Gibco, Cat #11039). Following overnight culture, cells were loaded with calcium indicator dye (AAT Bioquest Inc, Cat #34601) for 30 minutes at 37° C. The cells were then equilibrated to room temperature for 30 minutes before the assay. Test compounds solubilized in DMSO were transferred to 384 well non-binding surface plates (Corning, Cat #3575) using the Labcyte Echo acoustic dispense and diluted with assay buffer [1×HBSS with calcium/magnesium (Gibco Cat #14025-092), 20 mM HEPES (Gibco Cat #15630-080) and 0.1% fatty acid free BSA (Sigma Cat #A9205)] to a final concentration of 0.5% DMSO. Diluted compounds were added to the cells by FDSS6000 (Hamamatsu) at final concentrations ranging from 0.08 nM to 5 μM. and were then incubated for 20 min at room temperature at which time LPA (Avanti Polar Lipids Cat #857130C) was added at final concentrations of 10 nM to stimulate the cells. The compound IC50 value was defined as the concentration of test compound which inhibited 50% of the calcium flux induced by LPA alone. IC50 values were determined by fitting data to a 4-parameter logistic equation (GraphPad Prism, San Diego CA).
# T1 sequence (Q92633 whole entry): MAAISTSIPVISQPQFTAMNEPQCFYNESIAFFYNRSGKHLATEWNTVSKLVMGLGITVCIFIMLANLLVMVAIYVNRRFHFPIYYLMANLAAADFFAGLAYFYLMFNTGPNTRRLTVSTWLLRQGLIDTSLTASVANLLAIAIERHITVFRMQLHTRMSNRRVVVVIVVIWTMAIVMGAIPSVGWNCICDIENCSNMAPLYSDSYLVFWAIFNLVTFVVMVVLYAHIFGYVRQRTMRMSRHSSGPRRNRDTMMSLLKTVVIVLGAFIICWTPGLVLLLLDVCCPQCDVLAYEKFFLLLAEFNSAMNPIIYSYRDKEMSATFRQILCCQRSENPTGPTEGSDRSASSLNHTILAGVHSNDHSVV
row,Structure (SMILES),IC50
1,Cc1noc(-c2ccc(O[C@@H]3COC[C@@H](C(=O)O)C3)cc2)c1COC(=O)N(C)CCC(C)C (racemic) [Example 3],218 nM
2,"Cc1noc(-c2ccc(OC3CCCC4C(C(=O)O)C34)cc2)c1COC(=O)N(C)C1CCCC1 (racemic) [Example 17, (±)-2-(4-(4-(((Cyclopentyl(methyl)carbamoyl)oxy)methyl)-3-methylisoxazol-5-yl)phenoxy) bicyclo [4.1.0]heptane-7-carboxylic acid]",396 nM
3,"Cc1noc(-c2ccc(O[C@H]3CCO[C@@H](C(=O)O)C3)cc2)c1COC(=O)N(C)C1CCCC1 (racemic) [Example 6, (±)-cis-4-(4-(4-(((cyclopentyl(methyl)carbamoyl)oxy)methyl)-3-methylisoxazol-5-yl)phenoxy)tetrahydro-2H-pyran-2-carboxylic acid]",290 nM
4,Cc1noc(-c2ccc(O[C@H]3CCO[C@H](C(=O)O)C3)cc2)c1COC(=O)N(C)CCC(C)C [Example 8],1100 nM
5,"CCCCN(C)C(=O)OCc1c(C)noc1-c1ccc(O[C@@H]2C[C@H](C(=O)O)C[C@@H]3C[C@@H]32)cn1 (racemic) [Example 13, (±)-(1S,3R,5R,6S)-5-((6-(4-(((butyl(methyl)carbamoyl)oxy)methyl)-3-methyl-isoxazol-5-yl)pyridin-3-yl)oxy)bicyclo[4.1.0]heptane-3-carboxylic acid]",22 nM
6,"Cc1noc(-c2ccc(OC3CC(C(=O)O)CC4CC43)cc2)c1COC(=O)N(C)C1CCCC1 (racemic) [Example 11, (±)-(1R,3R,5R,6R)-5-(4-(4-(((cyclopentyl(methyl)carbamoyl)oxy)methyl)-3-methylisoxazol-5-yl)phenoxy)bicyclo[4.1.0]heptane-3-carboxylic acid]",65 nM
7,"Cc1noc(-c2ccc(OC3CC4C(C3)C4C(=O)O)cc2)c1COC(=O)N(C)CC1CCC1 (racemic) [Example 15, (±)-3-(4-(4-((((Cyclobutylmethyl)(methyl)carbamoyl)oxy)methyl)-3-methyl-isoxazol-5-yl)phenoxy)bicyclo[3.1.0]hexane-6-carboxylic acid]",563 nM
8,"Cc1noc(-c2ccc(O[C@H]3COC[C@H](C(=O)O)C3)cc2)c1COC(=O)N(C)C1CCCC1 (racemic) [Example 1, (±)-trans-5-(4-(4-(((cyclopentyl(methyl)carbamoyl)oxy)methyl)-3-methylisoxazol-5-yl)phenoxy)tetrahydro-2H-pyran-3-carboxylic acid)]",140 nM
9,CCCCN(C)C(=O)OCc1c(C)noc1-c1ccc(OC2CCCC3C(C(=O)O)C23)cc1 (stereo not drawn) [Example 18],973 nM
10,Cc1noc(-c2ccc(OC3CCCC4C(C(=O)O)C34)cc2)c1COC(=O)N(C)CC1CCC1 (stereo not drawn) [Example 19],1340 nM
11,Cc1noc(-c2ccc(OC3CCCC4C(C(=O)O)C34)cc2)c1COC(=O)N(C)CC1CC1 (stereo not drawn) [Example 20],1520 nM
12,"Cc1noc(-c2ccc(O[C@H]3CCO[C@H](C(=O)O)C3)cc2)c1COC(=O)N(C)C1CCCC1 (racemic) [Example 5, (±)-trans-4-(4-(4-(((cyclopentyl(methyl)carbamoyl)oxy)methyl)-3-methylisoxazol-5-yl)phenoxy)tetrahydro-2H-pyran-2-carboxylic acid]",560 nM
13,"Cc1noc(-c2ccc(OC3CCC4C(C(=O)O)C34)cc2)c1COC(=O)N(C)C1CCCC1 (racemic) [Example 14, (±)-2-(4-(4-(((Cyclopentyl(methyl)carbamoyl)oxy)methyl)-3-methylisoxazol-5-yl)phenoxy)bicyclo[3.1.0]hexane-6-carboxylic acid]",48 nM

# Other lines, results leading:
row,IC50,Structure (SMILES)
1,372 nM,CCCCN(C)C(=O)OCc1c(C)noc1-c1ccc(OC2CC3C(C2)C3C(=O)O)cc1 (stereo not drawn) [Example 16]
2,200 nM,Cc1noc(-c2ccc(O[C@H]3CCO[C@@H](C(=O)O)C3)cc2)c1COC(=O)N(C)CCC(C)C (racemic) [Example 7]
3,197 nM,"Cc1noc(-c2ccc(O[C@@H]3C[C@H](C(=O)O)C[C@H]4C[C@H]43)cc2)c1COC(=O)N(C)C1CCCC1 (racemic) [Example 12, (±)-(1R,3R,5R,6R)-5-(4-(4-(((cyclopentyl(methyl)carbamoyl)oxy)methyl)-3-methylisoxazol-5-yl)phenoxy)bicyclo[4.1.0]heptane-3-carboxylic acid]"
4,182 nM,"Cc1noc(-c2ccc(O[C@H]3C[C@H](C(=O)O)C[C@@H]4C[C@@H]43)cc2)c1COC(=O)N(C)C1CCCC1 (racemic) [Example 10, (±)-(1S,3R,5S,6S)-5-(4-(4-(((cyclopentyl(methyl)carbamoyl)oxy)methyl)-3-methyl-isoxazol-5-yl)phenoxy) bicyclo[4.1.0]heptane-3-carboxylic acid]"
5,145 nM,"Cc1noc(-c2ccc(O[C@@H]3COC[C@H](C(=O)O)C3)cc2)c1COC(=O)N(C)C1CCCC1 (racemic) [Example 2, (±)-cis-5-(4-(4-(((cyclopentyl(methyl)carbamoyl)oxy)methyl)-3-methyl-isoxazol-5-yl)phenoxy)tetrahydro-2H-pyran-3-carboxylic acid)]"
6,102 nM,Cc1noc(-c2ccc(O[C@@H]3COC[C@H](C(=O)O)C3)cc2)c1COC(=O)N(C)CCC(C)C [Example 4]
7,41 nM,"Cc1noc(-c2ccc(O[C@@H]3CCO[C@H](C(=O)O)C3)cc2)c1COC(=O)N(C)CCC(C)C (single isomer, unassigned) [Example 9]"

# Test system: mouse epithelial renal cell line, MCT
# Assay: not given
# Details: MCT cells, co-treatment with LPA; cited from earlier work
row,Structure (SMILES),LPA-induced expression of CTGF
1,Cc1noc(-c2ccc(CSCCC(=O)O)cc2)c1NC(=O)OC(C)c1ccccc1Cl (stereo not drawn) [Ki16425],almost completely suppressed

# Test system: UUO mice
# Assay: not given
# Details: cited from earlier work
row,Structure (SMILES),"development of renal fibrosis, profile compared with LPA1 (-/-) mice"
1,Cc1noc(-c2ccc(CSCCC(=O)O)cc2)c1NC(=O)OC(C)c1ccccc1Cl (stereo not drawn) [Ki16425],closely resembled the profile of LPA1 (−/−) mice

# Test system: human foetal lung fibroblasts
# Assay: not given
# Details: Tager et al.; cited from earlier work
row,Structure (SMILES),chemotaxis of human foetal lung fibroblasts induced by BAL from IPF patients
1,Cc1noc(-c2ccc(CSCCC(=O)O)cc2)c1NC(=O)OC(C)c1ccccc1Cl (stereo not drawn) [Ki16425],blocked
